Among the data in BindingDB's records for doi:10.1016/j.bmcl.2005.02.039 (National Institute of Pharmaceutical Education and Research …, 2005) are IC50 values, retold here.

The assay is described as follows: Anti-oxidant activity in DPPH radicak scavenging assay; n=3-4.

Consider `COc1cc(C=Cc2cc(C=Cc3ccc(O)cc3)n[nH]2)ccc1O` [4-((E)-2-{5-[(E)-2-(4-Hydroxy-phenyl)-vinyl]-1H-pyrazol-3-yl}-vinyl)-2-methoxy-phenol], for which the IC50 (in general, the concentration that inhibits the measured activity by half) is 15.5 µM.
With `COc1cc(/C=C/c2cc(/C=C/c3ccc(O)cc3)on2)ccc1O` [4-((E)-2-{5-[(E)-2-(4-Hydroxy-phenyl)-vinyl]-isoxazol-3-yl}-vinyl)-2-methoxy-phenol], half-maximal inhibition (IC50) required 19 µM. This IC50 and that of the compound before are within 1.5-fold of each other.
The compound `Oc1ccc(/C=C/c2cc(/C=C/c3ccc(O)cc3)[nH]n2)cc1` [4-((E)-2-{3-[(E)-2-(4-hydroxyphenyl)vinyl]-1H-pyrazol-5-yl}vinyl)phenol] showed an IC50 of 32.4 µM.
